These results are taken from ChEMBL document CHEMBL1201862, “PubChem BioAssay data set” (2004).

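1) Cells in 96-well plates. 2) Compound, 48 h, 5 concentrations. 3) Linear interpolation between surrounding doses. 4) Unreached endpoint = highest concentration. GI50 = concentration required for 50% inhibition of growth.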 Active and inactive are the calls of the source. Cut-off read from the data, not from the text of the source: active = GI50 up to about 1.1 µM and inactive = higher.

Common to all, as to assay: NCI anticancer screen, dose series, 48 h
The test system of assay [1] is DMS-273.
The subject of assay [2] is KM12.
For assay [3], the system named is OVCAR-5.
Assay [4] deals with IGROV-1.
The test system of assay [5] is SN12C.
The test system of assay [6] is SNB-78.
Assay [7] deals with A498.
The test system of assay [8] is NCI-H522.
In assay [9] the test system is HOP-18.
The subject of assay [10] is DLD-1.
The test system of assay [11] is EKVX.
Assay [12] relates to HT-29.
Assay [13] relates to CAKI-1.
Assay [14] concerns SF-295.
The subject of assay [15] is SK-MEL-5.
For assay [16], the system named is SF-539.
Assay [17] concerns XF498.

As to `Ic1cc2c(cc1C1SCCCS1)OCO2`, the GI50 in [1], in assay [2], in assay [3], in assay [4], in [5] and in assay [6] was > 100 µM (inactive) in each case. The GI50 in assay [7], in assay [8], in assay [9], in assay [10], in assay [11] and in [12] was > 100 µM (inactive) each time. In addition, the GI50 in assay [13], in assay [14], in [15] and in assay [16] was > 100 µM (inactive) in each case.

In the case of `O=C1C(c2ccccc2)=[N+]([O-])c2cc([N+](=O)[O-])c(/C(Cl)=C/c3ccccc3)cc21`, the GI50 in assay [1] was 18.1 µM (inactive); in assay [2], 22.8 µM (inactive); in assay [3], 31.2 µM (inactive); in [4] it was 23.2 µM (inactive); in assay [6], 29.4 µM (inactive); in assay [9] it was 24.1 µM (inactive). Also, the GI50 in [10] was 14.2 µM (inactive); in assay [11] it was 25.7 µM (inactive); in assay [12], 22.3 µM (inactive); in assay [14], 53.3 µM (inactive); in [15] it was 20.4 µM (inactive); in [16], 23.8 µM (inactive).

With `CC1C(=O)N(C)C2(CO)C(=O)O[C@H](C)C12O` (some centres not stated), the GI50 in assay [2], in assay [3], in assay [4], in assay [6], in assay [9] and in assay [10] was > 100 µM (inactive) in each case. In addition, the GI50 in [11] is > 100 µM (inactive); in assay [12], > 100 µM (inactive); in assay [13], > 100 µM (inactive); in assay [14] it was 28.1 µM (inactive); in assay [15], > 100 µM (inactive); in [16] it was > 100 µM (inactive).

For `C=CCCC12CCCC(=O)C1Sc1ccc3ccccc3c12` (configuration not stated), the GI50 is 5.38 µM (inactive) in assay [1]; 7.38 µM (inactive) in [2]; 27.5 µM (inactive) in assay [3]; 33.8 µM (inactive) in assay [4]; 14.6 µM (inactive) in assay [5]; 20.8 µM (inactive) in [6]. For the same compound, the GI50 in assay [7] is 13.1 µM (inactive); in assay [8], 15 µM (inactive); in assay [9] it was 19.7 µM (inactive); in [10], 22.4 µM (inactive); in assay [11], 21.6 µM (inactive); in assay [12] it was 20.1 µM (inactive). Further, the GI50 in [13] is 9.04 µM (inactive); in assay [14], 19.4 µM (inactive); in assay [15] it was > 10 µM (inactive); in [16], 15.1 µM (inactive).

In the case of `CC1(C(=O)O)CCOc2ccccc21` (configuration not stated), the GI50 in assay [3], in assay [4], in assay [5], in [6], in assay [7] and in assay [9] was > 100 µM (inactive) each time. Further, the GI50 in assay [10], in assay [11], in [12], in assay [13], in assay [14] and in assay [15] was > 100 µM (inactive) each time. Also, the GI50 in [16] was > 100 µM (inactive).

In the case of `CC(C)CCC[C@@H](C)[C@H]1CC[C@H]2[C@@H]3CC=C4CC(OCCCCN(O)CCCSC5OC(CO)C(O)C(O)C5O)CC[C@]4(C)[C@H]3CC[C@]12C` (some centres not stated), the GI50 in [1] was 32 µM (inactive); in assay [2], 33.5 µM (inactive); in [3], > 100 µM (inactive); in [4] it was 22.1 µM (inactive); in assay [5] it was > 100 µM (inactive); in assay [6] it was 74.8 µM (inactive). Moreover, the GI50 in assay [7] was > 100 µM (inactive); in assay [8] it was 23.1 µM (inactive); in [10] it was 56.4 µM (inactive); in assay [11], > 100 µM (inactive); in assay [12] it was 30.4 µM (inactive); in assay [13], > 100 µM (inactive). Further, the GI50 in assay [14] was > 100 µM (inactive); in assay [15], 70.5 µM (inactive); in assay [16], 18.8 µM (inactive); in assay [17] it was > 100 µM (inactive).

As for `Cc1c(Cl)cccc1NC(=O)CC1C(=O)Nc2ccccc2S1(=O)=O` (configuration not stated), the GI50 is 7.69 µM (inactive) in [1]; 20.6 µM (inactive) in assay [3]; 15.3 µM (inactive) in [4]; 16.7 µM (inactive) in [5]; 20.2 µM (inactive) in [6]; 15.3 µM (inactive) in assay [7]. The GI50 is 15.1 µM (inactive) in assay [10]; 25.6 µM (inactive) in assay [11]; 17.6 µM (inactive) in assay [12]; 19.9 µM (inactive) in assay [13]; 19.7 µM (inactive) in [14]; 12.2 µM (inactive) in assay [15]. For the same compound, the values for the GI50 in [16] and in assay [17] were 14.7 µM (inactive) and 15.2 µM (inactive), respectively.

Regarding `Cl[Si]1(Cl)Oc2ccccc2O[Si](Cl)(Cl)Oc2ccccc2O1`, the GI50 in [1] was 7.38 µM (inactive); in assay [2] it was 34.3 µM (inactive); in assay [3] it was 27.7 µM (inactive); in assay [4], 28.6 µM (inactive); in assay [5], 6.7 µM (inactive); in assay [7] it was 36.2 µM (inactive). The GI50 in assay [8] is 1.53 µM (inactive); in [10] it was 34 µM (inactive); in assay [11], 31 µM (inactive); in assay [12] it was 17 µM (inactive); in [13] it was 28.4 µM (inactive); in assay [14], 31.3 µM (inactive). In addition, the GI50 in assay [15] is 12.4 µM (inactive); in [16], 20.3 µM (inactive); in assay [17], 15.2 µM (inactive).

On to `COc1cc2c(c(OC)c1OC)-c1ccc(SC)c(=O)cc1[C@@H](NC(=O)c1ccc(C#N)cc1)CC2`, for which the GI50 in assay [1], in assay [2], in assay [3], in assay [4], in assay [5] and in [6] was < 0.01 µM (active) throughout. In addition, the GI50 in assay [7], in assay [8], in assay [10], in assay [11], in assay [12] and in [14] was < 0.01 µM (active) each time. The GI50 in assay [15], in assay [16] and in assay [17] was < 0.01 µM (active) throughout.

With `CCN1CCC(O)(/C=C/c2ccc(Cl)cc2)C(C(=O)/C=C/c2ccc(Cl)cc2)C1` (configuration not stated), the GI50 is 28.4 µM (inactive) in assay [1]; 15.2 µM (inactive) in assay [2]; 30.8 µM (inactive) in [3]; 27.1 µM (inactive) in assay [4]; > 10 µM (inactive) in assay [5]; 45.5 µM (inactive) in assay [6]. In addition, the GI50 in assay [7] is 17.3 µM (inactive); in [8] it was 28.4 µM (inactive); in assay [10], 16.5 µM (inactive); in [11] it was 43.9 µM (inactive); in [12], 18.6 µM (inactive); in [14] it was 20.6 µM (inactive). Moreover, the GI50 in assay [15] is 13.5 µM (inactive); in assay [17] it was 81.1 µM (inactive).

Regarding `C[P+]1(c2ccccc2)CCCCC1`, the GI50 in assay [1], in assay [2], in [3], in assay [4], in [5] and in assay [6] was > 100 µM (inactive) in each case. Besides, the GI50 in assay [7] was > 100 µM (inactive); in [9], 0.0484 µM (active); in assay [10] it was > 100 µM (inactive); in [11], > 100 µM (inactive); in assay [12], > 100 µM (inactive); in assay [13], > 100 µM (inactive). The GI50 in [14], in assay [15] and in assay [16] was > 100 µM (inactive) in each case.

Turning to `COc1ccc(NC(=O)C2C(=O)N(c3ccc(OC)cc3)C(=O)/C2=N\N)cc1` (configuration not stated), the GI50 in assay [2], in assay [3], in assay [4], in assay [5], in [6] and in assay [7] was > 100 µM (inactive) throughout. The GI50 in assay [8], in assay [9], in [10], in assay [11], in assay [12] and in assay [14] was > 100 µM (inactive) throughout. For the same compound, the GI50 in [15] and in assay [16] was > 100 µM (inactive) each time.

As to `C(=N\OCc1ccccc1)/c1ncccc1C1OCCO1`, the GI50 in [1], in assay [2], in assay [3], in assay [4], in [5] and in assay [6] was > 100 µM (inactive) throughout. The GI50 in [8], in [9], in assay [10], in [11], in [12] and in [13] was > 100 µM (inactive) in each case. In addition, the GI50 in [14], in assay [15] and in assay [16] was > 100 µM (inactive) throughout.
